In patent publication US20240366598A1, “GLUCOSE-DEPENDENT INSULINOTROPIC POLYPEPTIDE RECEPTOR ANTAGONISTS AND USES THEREOF” (Pfizer Inc., priority 2023, published 2024):
Counter-ions that a name gives are not always drawn.

Target: T1, human Glucose-dependent Insulinotropic Polypeptide Receptor (hGIPR) (Homo sapiens, UniProt P48546)
T1 sequence (P48546 22-466): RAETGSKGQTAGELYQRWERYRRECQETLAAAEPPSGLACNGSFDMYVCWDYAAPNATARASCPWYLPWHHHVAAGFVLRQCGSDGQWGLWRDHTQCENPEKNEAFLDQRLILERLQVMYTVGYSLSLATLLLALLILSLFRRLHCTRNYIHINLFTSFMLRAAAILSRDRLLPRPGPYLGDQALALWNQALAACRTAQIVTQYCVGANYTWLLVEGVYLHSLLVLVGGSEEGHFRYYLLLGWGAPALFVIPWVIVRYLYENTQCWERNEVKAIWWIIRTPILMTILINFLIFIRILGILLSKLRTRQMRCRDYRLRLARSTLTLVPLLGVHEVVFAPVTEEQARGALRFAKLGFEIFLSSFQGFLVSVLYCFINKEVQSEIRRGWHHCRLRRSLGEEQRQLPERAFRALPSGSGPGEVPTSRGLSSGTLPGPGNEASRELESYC
Experiment: Functional in vitro GIPR antagonist potency assay (cAMP HTRF, CHO-K1 cells stably expressing hGIPR, hGIP stimulation at about EC80)
Format: cell-based
Settings: geometric mean, hGIP at estimated EC80, examples marked ^2: overall geometric mean of multiple forms (including salts) tested
Summary of the method: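 HTRF quantification of cAMP after stimulation with hGIP at an estimated EC80 for 30 min at 37 °C. Before stimulation, hGIPR-expressing CHO-K1 cells were exposed 2 h to test compound in IBMX-containing buffer, with 0.5% DMSO final. Percent effect is referenced to agonist alone (0%) and to 80 μM of a reference antagonist (100%), and runs required the agonist concentration to fall within the on-the-day EC50–EC90.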

Row | IC50 | Structure (SMILES)
1 | 110 nM | CC(C)c1ccc(NC(=O)N2C[C@@H]3C[C@@H]3[C@@H]2C(=O)Nc2ccc(-c3cccc(C(=O)O)c3)cc2)cc1 [Example 159, 4′-{[(1S,2R,5R)-3-{[4-(propan-2-yl)phenyl]carbamoyl}-3-azabicyclo[3.1.0]hexane-2-carbonyl]amino}[1,1′-biphenyl]-3-carboxylic acid]
2 | 75 nM | Cc1cc(NC(=O)[C@H]2CCCN2C(=O)Nc2ccc(C3CCC3)cc2)cnc1-c1ccc(C(=O)O)cc1 [Example 160, 4-[5-({1-[(4-cyclobutylphenyl)carbamoyl]-D-prolyl}amino)-3-methylpyridin-2-yl]benzoic acid]
3 | 77 nM | O=C(O)c1ccc2cc(NC(=O)[C@H]3CCCN3C(=O)Nc3ccc(C(F)(F)F)cc3)ccc2c1 [Example 161, 6-[(1-{[4-(trifluoromethyl)phenyl]carbamoyl}-D-prolyl)amino]naphthalene-2-carboxylic acid]
4 | 44 nM | Cc1cc(NC(=O)N2CCC[C@@H]2C(=O)Nc2ccc3cc(C(=O)O)ccc3c2)ccc1C(C)C [Example 162, 6-[(1-{[3-methyl-4-(propan-2-yl)phenyl]carbamoyl}-D-prolyl)amino]naphthalene-2-carboxylic acid]
5 | 19 nM | Cc1cc(NC(=O)N2CCC[C@@H]2C(=O)Nc2ccc(-c3ccc(C(=O)O)cc3)nc2)ccc1C(F)(F)F [Example 163, 4-{5-[(1-{[3-methyl-4-(trifluoromethyl)phenyl]carbamoyl}-D-prolyl)amino]pyridin-2-yl}benzoic acid]
6 | 22 nM | C[C@H](NC(=O)N1CCC[C@@H]1C(=O)Nc1ccc(-c2ccc(C(=O)O)cc2)cc1)c1ccc(C(F)(F)F)cc1 [Example 164, 4′-{[1-({(1S)-1-[4-(trifluoromethyl)phenyl]ethyl}carbamoyl)-D-prolyl]amino}[1,1′-biphenyl]-4-carboxylic acid]
7 | 7.2 nM | Cc1cc(NC(=O)N2CCC[C@@H]2C(=O)Nc2ccc(-c3ccc(C(=O)O)nc3C)cc2)ccc1C(F)(F)F [Example 167, 6-methyl-5-{4-[(1-{[3-methyl-4-(trifluoromethyl)phenyl]carbamoyl}-D-prolyl)amino]phenyl}pyridine-2-carboxylic acid]
8 | 15 nM | Cc1cc(NC(=O)N2CCC[C@@H]2C(=O)Nc2ccc(-c3ccc(C(=O)O)nc3C)cc2)ccc1C(C)C [Example 168, 6-methyl-5-{4-[(1-{[3-methyl-4-(propan-2-yl)phenyl]carbamoyl}-D-prolyl)amino]phenyl}pyridine-2-carboxylic acid]
9 | 49 nM | Cc1nc(C(=O)O)ccc1-c1ccc(NC(=O)[C@H]2CCCN2C(=O)Nc2ccc(C(F)(F)F)cc2)cc1 [Example 169, 6-methyl-5-{4-[(1-{[4-(trifluoromethyl)phenyl]carbamoyl}-D-prolyl)amino]phenyl}pyridine-2-carboxylic acid]

More lines, now with the values behind:

Row | Structure (SMILES) | IC50
10 | Cc1cc(NC(=O)N2CCC[C@@H]2C(=O)Nc2ccc(-c3ccc(C(=O)O)cc3)cc2)cnc1C(C)C [Example 145, 4′-[(1-{[5-methyl-6-(propan-2-yl)pyridin-3-yl]carbamoyl}-D-prolyl)amino][1,1′-biphenyl]-4-carboxylic acid, trifluoroacetate salt] | 70 nM
11 | Cc1cc(NC(=O)N2CCC[C@@H]2C(=O)Nc2ccc(-c3ccc(C(=O)O)cc3)cc2)ncc1C(C)C [Example 146, 4′-[(1-{[4-methyl-5-(propan-2-yl)pyridin-2-yl]carbamoyl}-D-prolyl)amino][1,1′-biphenyl]-4-carboxylic acid, trifluoroacetate salt] | 9.7 nM
12 | CC(c1ccc(NC(=O)N2CCC[C@@H]2C(=O)Nc2ccc(-c3ccc(C(=O)O)cc3)cc2)cc1)C(F)(F)F (stereo partly drawn) [Example 147, 4′-[(1-{[4-(1,1,1-trifluoropropan-2-yl)phenyl]carbamoyl}-D-prolyl)amino][1,1′-biphenyl]-4-carboxylic acid] | 13 nM
13 | CC(C)c1ccc(NC(=O)N2CCC[C@@H]2C(=O)Nc2ccc(-c3cccc(C(N)=O)c3)cc2)cc1 [Example 148, (2R)-N^2-(3′-carbamoyl[1,1′-biphenyl]-4-yl)-N^1-[4-(propan-2-yl)phenyl]pyrrolidine-1,2-dicarboxamide] | 240 nM
14 | O=C(O)c1ccc(-c2ccc(NC(=O)[C@H]3CCCN3C(=O)Nc3ccc(C4CC4)c(F)c3)cc2)cc1 [Example 149, 4′-({1-[(4-cyclopropyl-3-fluorophenyl)carbamoyl]-D-prolyl}amino)[1,1′-biphenyl]-4-carboxylic acid] | 21 nM
15 | Cc1cc(NC(=O)[C@H]2CCCN2C(=O)Nc2ccc(C(C)C)cc2)cnc1-c1ccc(C(=O)O)cc1 [Example 150, 4-{3-methyl-5-[(1-{[4-(propan-2-yl)phenyl]carbamoyl}-D-prolyl)amino]pyridin-2-yl}benzoic acid] | 86 nM
16 | COc1cc(C(=O)O)ccc1-c1ccc(NC(=O)[C@H]2CCCN2C(=O)Nc2ccc(C(C)C)cc2)nc1 [Example 151, 3-methoxy-4-{6-[(1-{[4-(propan-2-yl)phenyl]carbamoyl}-D-prolyl)amino]pyridin-3-yl}benzoic acid] | 110 nM
17 | CC(C)c1ccc(NC(=O)N2CCC[C@@H]2C(=O)Nc2ccc3cc(C(=O)O)ccc3c2)cc1F [Example 152, 6-[(1-{[3-fluoro-4-(propan-2-yl)phenyl]carbamoyl}-D-prolyl)amino]naphthalene-2-carboxylic acid] | 44 nM
18 | O=C(O)c1ccc(-c2ccc(NC(=O)[C@H]3CCCN3C(=O)NCc3ccc(C(F)(F)F)cc3)nc2)cc1 [Example 153, 4-(6-{[1-({[4-(trifluoromethyl)phenyl]methyl}carbamoyl)-D-prolyl]amino}pyridin-3-yl)benzoic acid] | 11 nM
19 | CC(C)c1ccc(NC(=O)N2C[C@H]3C[C@H]3[C@@H]2C(=O)Nc2ccc(-c3cccc(C(=O)O)c3)cc2)cc1 [Example 154, 4′-{[(1R,2R,5S)-3-{[4-(propan-2-yl)phenyl]carbamoyl}-3-azabicyclo[3.1.0]hexane-2-carbonyl]amino}[1,1′-biphenyl]-3-carboxylic acid] | 58 nM
20 | O=C(O)c1ccc(-c2ccc(NC(=O)[C@H]3CCCN3C(=O)Nc3ccc(CC(F)(F)F)cc3)cc2)cc1 [Example 155, 4′-[(1-{[4-(2,2,2-trifluoroethyl)phenyl]carbamoyl}-D-prolyl)amino][1,1′-biphenyl]-4-carboxylic acid] | 22 nM
21 | COc1cc(C(=O)O)ccc1-c1ccc(NC(=O)[C@H]2CCCN2C(=O)Nc2ccc(C(C)C)c(C)c2)nc1 [Example 156, 3-methoxy-4-{6-[(1-{[3-methyl-4-(propan-2-yl)phenyl]carbamoyl}-D-prolyl)amino]pyridin-3-yl}benzoic acid] | 45 nM
22 | O=C(O)c1ccc(-c2ccc(NC(=O)[C@H]3CCCN3C(=O)NCc3ccc(C(F)(F)F)cc3)cc2)cc1 [Example 157, 4′-{[1-({[4-(trifluoromethyl)phenyl]methyl}carbamoyl)-D-prolyl]amino}[1,1′-biphenyl]-4-carboxylic acid] | 10 nM
23 | COc1cc(-c2ccc(NC(=O)[C@H]3CCCN3C(=O)Nc3ccc(C(F)(F)F)c(C)c3)cc2)ccc1C(=O)O [Example 158, 3-methoxy-4′-[(1-{[3-methyl-4-(trifluoromethyl)phenyl]carbamoyl}-D-prolyl)amino][1,1′-biphenyl]-4-carboxylic acid] | 7.7 nM
